Literature values, collected in US20030130179A1, “Methods for identifying therapeutic targets for treating infectious disease” (priority 2000, published 2003).

Assays:
[1] = molecular target: thymidylate synthase (TS) (Homo sapiens, UniProt P04818)
Sequence of thymidylate synthase (TS) (P04818 2-313 limits assumed): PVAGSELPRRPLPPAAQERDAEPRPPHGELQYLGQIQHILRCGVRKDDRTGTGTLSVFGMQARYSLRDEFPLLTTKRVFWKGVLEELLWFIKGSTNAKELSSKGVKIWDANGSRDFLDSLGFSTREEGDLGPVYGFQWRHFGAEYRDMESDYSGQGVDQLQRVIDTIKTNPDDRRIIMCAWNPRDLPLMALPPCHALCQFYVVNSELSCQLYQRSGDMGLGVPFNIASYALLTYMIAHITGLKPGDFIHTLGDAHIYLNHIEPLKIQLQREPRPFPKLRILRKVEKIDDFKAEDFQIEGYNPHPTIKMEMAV

Row | SMILES | cytotoxicity profile ([1]; TS inhibitor, relation to TS expression (Copur et al., 1995)) | Cytotoxicity ([1]; model cell-based systems, relation to TS protein levels) | toxicity to the host (colon and breast cancer; animal models) | efficacy (colon and breast cancer; colon and breast cancer animal models)
1 | O=c1[nH]c(=O)n([C@@H]2O[C@H](CO)[C@@H](O)[C@H]2O)cc1F [5-fluorouridine] | more toxic to the cells which express low amounts of the enzyme | – | – | –
2 | COC(=O)[C@H](C)NP(=O)(OC[C@H]1O[C@@H](n2cc(/C=C/Br)c(=O)[nH]c2=O)C[C@@H]1O)Oc1ccccc1 (stereo partly shown) [NB1011] | – | proportional to TS protein levels | little or no toxicity to the host | demonstrated efficacy against colon and breast cancer
